One may read the IC50 as the concentration needed to halve the response being measured. Higher therefore signals lower potency.

In this assay the target is Human DGAT2 (Homo sapiens (Human), UniProt Q96PD7). The assay is described as follows: DGAT2 Enzymatic Activity Assay (triolein formation, LC/MS/MS). In kind it is biochemical. The conditions noted are these: hDGAT2 Sf-9 membrane prep; 25 μM diolein, 10 μM oleoyl-CoA; room temperature. Put shortly: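 Triolein product, measured by LC/MS/MS as a ratio to internal standard, gave % inhibition and 4-parameter IC50. Reaction: 25 μM diolein, 10 μM oleoyl-CoA, 10 ng/μL hDGAT2 Sf-9 membrane, 100 mM Tris.Cl pH 7.0, 20 mM MgCl2, 5% ethanol, room temperature.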
Human DGAT2, sequence (Q96PD7 whole entry): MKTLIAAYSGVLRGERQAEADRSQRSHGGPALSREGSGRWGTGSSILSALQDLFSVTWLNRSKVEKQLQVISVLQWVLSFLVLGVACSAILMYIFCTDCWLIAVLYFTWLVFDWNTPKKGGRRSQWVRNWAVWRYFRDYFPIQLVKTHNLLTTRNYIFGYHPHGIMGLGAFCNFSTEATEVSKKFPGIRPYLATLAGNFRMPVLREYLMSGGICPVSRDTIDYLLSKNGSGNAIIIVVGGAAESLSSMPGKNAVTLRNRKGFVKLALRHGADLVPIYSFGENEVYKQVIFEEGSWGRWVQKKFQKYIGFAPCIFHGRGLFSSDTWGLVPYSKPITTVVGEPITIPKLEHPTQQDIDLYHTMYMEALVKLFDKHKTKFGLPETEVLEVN
For the compound `CC1(NC(=O)c2ccc3c(-c4cc(C#N)ccc4Cl)nn(-c4ccc(F)cc4)c3c2)CCS(=O)(=O)C1` (single isomer, unassigned) [Example 119-A, 3-(2-chloro-5-cyanophenyl)-1-(4-fluorophenyl)-N-(3-methyl-1,1-dioxidotetrahydrothiophen-3-yl)-1H-indazole-6-carboxamide], the IC50 is 8.4 nM. In the case of `O=C(NCc1ccccn1)c1ccc2c(-c3ccccc3Cl)nn(-c3ccc(F)cc3)c2c1` [Example 32, 3-(2-chlorophenyl)-1-(4-fluorophenyl)-N-(pyridin-2-ylmethyl)-1H-indazole-6-carboxamide] it was 495 nM; in that of `O=C(N[C@H](CO)c1ccccc1)c1ccc2c(-c3ccccc3Cl)nn(-c3ccc(F)cc3)c2c1` [Example 82, 3-(2-chlorophenyl)-1-(4-fluorophenyl)-N-[(1S)-2-hydroxy-1-phenylethyl]-1H-indazole-6-carboxamide], 36 nM.

As for `CC1(NC(=O)c2ccc3c(-c4cccc(C(N)=O)c4)nn(-c4ccc(F)cc4)c3c2)CCS(=O)(=O)C1` (racemic) [Example 149, 3-(3-carbamoylphenyl)-1-(4-fluorophenyl)-N-(3-methyl-1,1-dioxidotetrahydrothiophen-3-yl)-1H-indazole-6-carboxamide], the IC50 is 249 nM. In turn, `O=C(N[C@@H]1CCC[C@H]1O)c1ccc2c(-c3ccccc3Cl)nn(-c3ccc(F)cc3)c2c1` [Example 94, 3-(2-chlorophenyl)-1-(4-fluorophenyl)-N-[(1R,2R)-2-hydroxycyclopentyl]-1H-indazole-6-carboxamide] registered an IC50 of 772 nM. Next, `C[C@@H]1CC[C@@H](O)[C@H]1NC(=O)c1ccc2c(-c3ccccc3Cl)nn(-c3ccc(F)cc3)c2c1` [Example 72, 3-(2-chlorophenyl)-1-(4-fluorophenyl)-N-[(1S,2R,5R)-2-hydroxy-5-methylcyclopentyl]-1H-indazole-6-carboxamide]: 22 nM; `CC1(NC(=O)c2ccc3c(-c4ccccc4Cl)nn(-c4ccc(Cl)cn4)c3c2)CCS(=O)(=O)C1` (single isomer, unassigned) [Example 171-A, 3-(2-Chlorophenyl)-1-(5-chloropyridin-2-yl)-N-(3-methyl-1,1-dioxidotetrahydrothiophen-3-yl)-1H-indazole-6-carboxamide]: 15 nM. In the case of `O=C(NCCS(=O)(=O)Nc1ccccn1)c1ccc2c(-c3ccccc3Cl)nn(-c3ccc(F)cc3)c2c1` [Example 55, 3-(2-chlorophenyl)-1-(4-fluorophenyl)-N-[2-(pyridin-2-ylsulfamoyl)ethyl]-1H-indazole-6-carboxamide] it was 383 nM. Next, `Cc1noc([C@H](NC(=O)c2ccc3c(-c4ccccc4Cl)nn(-c4ccc(F)cc4)c3c2)[C@H](C)O)n1` (stereo in doubt) [Example 48, 3-(2-chlorophenyl)-1-(4-fluorophenyl)-N-[(1R,2S)-2-hydroxy-1-(3-methyl-1,2,4-oxadiazol-5-yl)propyl]-1H-indazole-6-carboxamide]: 96 nM; `CC1(NC(=O)c2ccc3c(-c4cncc(F)c4)nn(-c4ccc(F)cc4)c3c2)CCS(=O)(=O)C1` (single isomer, unassigned) [Example 153-A, 1-(4-fluorophenyl)-3-(5-fluoropyridin-3-yl)-N-(3-methyl-1,1-dioxidotetrahydrothiophen-3-yl)-1H-indazole-6-carboxamide]: 90 nM.

On to `CSCC[C@@H](CO)NC(=O)c1ccc2c(-c3ccccc3Cl)nn(-c3ccc(F)cc3)c2c1` [Example 93, 3-(2-chlorophenyl)-1-(4-fluorophenyl)-N-[(1S)-1-(hydroxymethyl)-3-(methylsulfanyl)propyl]-1H-indazole-6-carboxamide], for which it took 503 nM to reach half-maximal inhibition (IC50).

Take `O=C(N[C@H]1c2ccccc2OC[C@H]1O)c1ccc2c(-c3ccccc3Cl)nn(-c3ccc(F)cc3)c2c1` [Example 71, 3-(2-chlorophenyl)-1-(4-fluorophenyl)-N-[(3S,4S)-3-hydroxy-3,4-dihydro-2H-chromen-4-yl]-1H-indazole-6-carboxamide]: the IC50 amounted to 526 nM.

In the case of `Cc1nnc(-c2cccc(-c3nn(-c4ccc(F)cc4)c4cc(C(=O)NC5(C)CCS(=O)(=O)C5)ccc34)c2)o1` (racemic) [Example 164, 1-(4-fluorophenyl)-N-(3-methyl-1,1-dioxidotetrahydrothiophen-3-yl)-3-[3-(5-methyl-1,3,4-oxadiazol-2-yl)phenyl]-1H-indazole-6-carboxamide], half-maximal inhibition (IC50) was put at 28 nM. Next, `O=C(NC1CCC(F)(F)C1)c1ccc2c(-c3ccccc3Cl)nn(-c3ccc(F)cc3)c2c1` (racemic) [Example 64, 3-(2-chlorophenyl)-N-(3,3-difluorocyclopentyl)-1-(4-fluorophenyl)-1H-indazole-6-carboxamide]: 132 nM; `COC(=O)c1cccc(-n2nc(-c3ccccc3Cl)c3ccc(C(=O)NC4(C)CCS(=O)(=O)C4)cc32)c1` (racemic) [Example 180, methyl 3-{3-(2-chlorophenyl)-6-[(3-methyl-1,1-dioxidotetrahydrodioxidotetra-hydrodioxidotetrahydrodioxido-tetrahydro-thiophen-3-yl)carbamoyl]-1H-indazol-1-yl}benzoate]: 222 nM; `CN(C)S(=O)(=O)CCNC(=O)c1ccc2c(-c3ccccc3Cl)nn(-c3ccc(F)cc3)c2c1` [Example 25, 3-(2-chlorophenyl)-N-[2-(dimethylsulfamoyl)ethyl]-1-(4-fluorophenyl)-1H-indazole-6-carboxamide]: 558 nM. As to `C[C@@H](NC(=O)c1ccc2c(-c3ccccc3Cl)nn(-c3ccc(F)cc3)c2c1)[C@H](O)c1ccccc1` [Example 107, 3-(2-chlorophenyl)-1-(4-fluorophenyl)-N-[(1R,2R)-2-hydroxy-1-methyl-2-phenylethyl]-1H-indazole-6-carboxamide], half-maximal inhibition (IC50) was put at 305 nM. `O=C(N[C@H](CO)Cc1ccccc1)c1ccc2c(-c3ccccc3Cl)nn(-c3ccc(F)cc3)c2c1` [Example 110, N-[(1S)-1-benzyl-2-hydroxyethyl]-3-(2-chlorophenyl)-1-(4-fluorophenyl)-1H-indazole-6-carboxamide] displayed an IC50 of 134 nM. In the case of `O=C(NC1CCS(=O)(=O)C1)c1ccc2c(-c3ccccc3Cl)nn(-c3ccc(Cl)cn3)c2c1` (single isomer, unassigned) [Example 173-A, 3-(2-chlorophenyl)-1-(5-chloropyridin-2-yl)-N-(1,1-dioxidotetrahydrothiophen-3-yl)-1H-indazole-6-carboxamide] it was 23 nM; in that of `CC[C@H](C)[C@@H](CO)NC(=O)c1ccc2c(-c3ccccc3Cl)nn(-c3ccc(F)cc3)c2c1` [Example 103, 3-(2-chlorophenyl)-1-(4-fluorophenyl)-N-[(1S,2S)-1-(hydroxymethyl)-2-methylbutyl]-1H-indazole-6-carboxamide], 31 nM; in that of `O=C(NC1CCS(=O)(=O)C1)c1ccc2c(-c3ccccc3Cl)nn(Cc3ccc(F)cc3)c2c1` (centres unmarked) [Example 170, 3-(2-chlorophenyl)-N-(1,1-dioxidotetrahydrothiophen-3-yl)-1-(4-fluorobenzyl)-1H-indazole-6-carboxamide], 179 nM. As for `O=C(NCC1(O)CCCCC1)c1ccc2c(-c3ccccc3Cl)nn(-c3ccc(F)cc3)c2c1` [Example 44, 3-(2-chlorophenyl)-1-(4-fluorophenyl)-N-[(1-hydroxycyclohexyl)methyl]-1H-indazole-6-carboxamide], the IC50 turned out to be 176 nM.

Consider `CC1(NC(=O)c2ccc3c(-c4cccc(C#N)c4)nn(-c4ccc(F)cn4)c3c2)CCS(=O)(=O)C1` (single isomer, unassigned) [Example 178-B, 3-(3-cyanophenyl)-1-(5-fluoropyridin-2-yl)-N-(3-methyl-1,1-dioxidotetrahydrothiophen-3-yl)-1H-indazole-6-carboxamide], for which the IC50 was 32 nM. In the case of `CCS(=O)(=O)CCNC(=O)c1ccc2c(-c3ccccc3Cl)nn(-c3ccc(F)cc3)c2c1` [Example 26, 3-(2-chlorophenyl)-N-[2-(ethylsulfonyl)ethyl]-1-(4-ftuorophenyl)-1H-indazole-6-carboxamide] it was 446 nM; in that of `O=C(NC1CCS(=O)(=O)C1)c1ccc2c(-c3ccccc3Cl)nn(Cc3ccccc3)c2c1` (racemic) [Example 167, (±)-1-Benzyl-3-(2-chlorophenyl-N-(1,1-dioxidotetrahydrothiophen-3-yl)-1-indazole-6-carboxamide], 383 nM.

On to `CC(C)[C@@H](CO)NC(=O)c1ccc2c(-c3cc(C#N)ccc3Cl)nn(-c3ccc(F)cc3)c2c1` [Example 123, 3-(2-chloro-5-cyanophenyl)-1-(4-fluorophenyl)-N-[(1S)-1-(hydroxymethyl)-2-methylpropyl]-1H-indazole-6-carboxamide], for which inhibition was half-maximal at 3.8 nM (IC50).

As for `CC1(NC(=O)c2ccc3c(-c4cccc(OC(F)F)c4)nn(-c4ccc(F)cc4)c3c2)CCS(=O)(=O)C1` (single isomer, unassigned) [Example 143-A, 3-[3-(difluoromethoxy)phenyl]-1-(4-fluorophenyl)-N-(3-methyl-1,1-dioxidotetrahydrothiophen-3-yl)-1H-indazole-6-carboxamide], the IC50 was found to be 1.6 nM. In the case of `CC(C)(C)OC(=O)N1CC[C@@H](NC(=O)c2ccc3c(-c4ccccc4Cl)nn(-c4ccc(F)cc4)c3c2)C1` [Example 101, tert-butyl (3R)-3-({[3-(2-chlorophenyl)-1-(4-fluorophenyl)-1H-indazol-6-yl]carbonyl}amino)pyrrolidine-1-carboxylate] it was 136 nM; in that of `CC1(NC(=O)c2ccc3c(-c4ccccc4Cl)nn(-c4ccc(F)cn4)c3c2)CCS(=O)(=O)C1` (single isomer, unassigned) [Example 172-B, 3-(2-chlorophenyl)-1-(5-fluoropyridin-2-yl)-N-(3-methyl-1,1-dioxidotetrahydrothiophen-3-yl)-1H-indazole-6-carboxamide], 56 nM.

The values above are taken from patent US11104690B2, “Indazole derivatives useful as inhibitors of diacylglyceride O-acyltransferase 2” (Merck Sharp & Dohme Corp., priority 2016, dated 2021).
